Legend:
Assay type in all cases: cell-based, human
NF-κB = assay: NF-kappaB reporter assay (pNF-kappaB-SEAP) in IL-1β-stimulated MKN-45 cells; conditions: IL-1β 2 ng/mL for 6 hours, DMSO (0.05%) control = 1.00, triplicate
Experimental: pNF-kappaB-SEAP was obtained from Clonetech Laboratories Inc.
Cryopreserved MKN-45 cells (product of JCRB (Japanese Collection of Research Bioresources)) were thawed and cultured in a standard medium in an incubator (37° C., 5% CO2). Every three to five days, the cells were recovered by treatment with Trypsin-EDTA, then adequately diluted and subcultured. MKN-45 cells subcultured two or more times with a survival rate of 95% or more were used in each experiment.
The subcultured MKN-45 cells were harvested using Trypsin-EDTA solution, and the number of viable cells was counted. The cells were suspended in a standard medium to yield a 1.5×10^5 cells/mL suspension. A 24-well plate was seeded with 500 μL/well of the cell suspension, and the cells were cultured in an incubator (37° C., 5% CO2).
The day after seeding, transfection was performed according to the following protocol.
(4.1) Preparation of Plasmid Solution 4 μL of 0.1 μg/μL pNFkappaB-SEAP was placed into each well and diluted with 50 μL of OPTI-MEM I (product of Invitrogen Japan K.K.) by mixing by inversion.
1 μL of Lipofectamine 2000 reagent (product of Invitrogen) was placed into each well and diluted with 50 μL of OPTI-MEM I (product of Life Technologies Inc.) by mixing by inversion. The mixture was allowed to stand at room temperature for 5 to 10 minutes to prepare a Lipofectamine dilution.
The plasmid solution and the Lipofectamine dilution were mixed by inversion and allowed to stand at room temperature for 20 to 30 minutes to prepare a transfection mixture.
The culture medium was removed from the 24-well plate by suction. While care was taken not to dry the subcultured MKN-45 cells, the inner surface of the wells was washed with 1 mL/well of PBS. After the medium was replaced with 500 μL/well of OPTI-MEM I (product of Life Technologies Inc.), 100 μL/well of the transfection mixture was added, and the cells were cultured in a incubator (37° C., 5% CO2). After about 5 hours of incubation, the medium was replaced with a standard medium, and the cells were further cultured in a CO2 incubator (37° C., 5% CO2) until the following day.
On the following morning, the culture medium supernatant was removed by suction and replaced with 1 mL/well of the test compound solution or control solution diluted with a standard medium. The cells were cultured in a CO2 incubator (37° C., 5% CO2) for 1 hour. Each experiment was performed in triplicate.
200 ng/mL IL-1β was added in an amount of 10 μL/well (final concentration: 2 ng/mL), and the cells were cultured in a CO2 incubator (37° C., 5% CO2) for 6 hours.
A reporter assay was performed using Reporter Assay Kit-SEAP (product of Toyobo Co.) according to the manufacturer's protocol.
More specifically, 500 μL of the culture broth was transferred into a tube and centrifuged at 15,000 rpm for 5 minutes at 4° C. The supernatant was transferred into a 96-well white plate. The positive control included in the Reporter Assay Kit-SEAP, and a standard medium as a blank control were each added in an amount of 20 μL/well to the 96-well white plate. Further, an inhibitor for inhibiting the AP activity of the MKN-45 cells was added in an amount of 20 μL/well. After sealing the plate, the contents were mixed well. The plate was placed into a CO2 incubator (37° C., 5% CO2) and allowed to stand for 30 minutes. Subsequently, the plate was allowed to stand on ice for 1 minute, followed by addition of 160 μL/well of Lumi-Phos Plus (a chemiluminescent substrate, product of Lumigen Inc.). The plate was sealed again and placed in a light-shielded state into a CO2 incubator (37° C., 5% CO2). After the plate was allowed to stand for 15 to 30 minutes, luminescence was measured for about 5 to about 10 seconds using a luminometer.
The results of the reporter assay were expressed as Percent Control (or Inhibition), calculated according to the following formulae. The luminescence of each sample was calculated by subtracting the average of blank samples.

COX2 = assay: Relative COX2 mRNA expression in IL-1β-stimulated MKN-45 cells (real-time PCR); conditions: IL-1β-stimulated DMSO-treated cells = 100%, ACTB reference
Experimental: (§1) RNA was extracted from the cells used in Example 2 according to the manufacturer's protocol for ABI Prism 6100 Nucleic Acid PrepStation (a nucleic acid isolation system, product of Applied Biosystems). More specifically, after removal of the culture supernatant and washing with 1 mL of PBS, 250 μL of Nucleic Acid Purification Lysis Solution (Part No. 4305895, Applied Biosystems) was added, and then agitated using a shaker for 2 to 3 minutes. The Lysis Solution containing the cell lysate was collected, and the total amount was transferred to the wells of RNA Purification Tray (Part No. 4305673, Applied Biosystems), which had been pre-wet with 40 μL of Nucleic Acid Purification Wash Solution I (Part No. 4305891, Applied Biosystems) beforehand. Aspiration (20% pressure) was performed for 2 minutes to adsorb the sample onto the RNA Purification Tray, followed by sequentially adding and aspirating (20% pressure, 2 min.) 500 μL of Wash Solution I, Nucleic Acid Purification (Part No. 4305891, Applied Biosystems), 400 μL of Wash Solution II, Nucleic Acid Purification (Part No. 4305890, product of Applied Biosystems), 400 μL of the Wash Solution II, and 300 μL of the Wash Solution II in that order. Aspiration (90% pressure) was performed for 5 minutes to remove the water content from the RNA Purification Trays. After addition of 150 μL of Elution Solution, Nucleic Acid Purification (Part No. 4305893, product of Applied Biosystems), aspiration (20% pressure) was performed for 2 minutes, while collecting the outflow. This was used as collected RNA solution.
(§2) Absorbance of the collected RNA solution at 260 nm was measured using a microplate spectrophotometer (“SpectraMax Plus”, product of Molecular Devices) with an analysis software (“SOFTmaxPRO ver.3.1.2”, product of Molecular Devices), and the RNA concentration was determined from the absorbance. Likewise, absorbance at 280 nm was measured and the purity of the RNA was determined using the analysis software.
(§3) cDNA was synthesized according to the manufacturer's protocol for TaqMan® Reverse Transcription Reagents (Part No. N808-0234, product of Applied Biosystems). More specifically, about 0.5 μg of RNA, 2.5 μL of 10×RT buffer, 5.5 μL of MgCl2 solution, 5 μL of dNTP mixture, 1.25 μL of random hexamer (primers), 0.5 μL of RNase inhibitor, and 0.63 μL of MultiScribe Reverse Transcriptase (product of Applied Biosystems) were added to each collected RNA sample in a tube, and DEPC-treated water was added to make a total volume of 25 μL and stirred. A reaction consisting of 25° C. for 10 minutes, 48° C. for 30 minutes, and 95° C. for 5 minutes was performed using a PCR thermal cycler (“TaKaRa PCR Thermal Cycler Dice”, product of Takara Bio Inc.) to prepare a cDNA solution.
(§4) PCR was performed according to the manufacturer's protocol for TaqMan® Gene Expression Assays (product of Applied Biosystems). More specifically, 5 μL of TaqMan® Fast Universal PCR Master Mix (product of Applied Biosystems), 0.5 μL of TaqMan® Gene Expression Assays for the target gene (gene-specific probe and primer sets, product of Applied Biosystems), and 4.5 μL of the above-obtained cDNA solution were added to each sample and stirred. A PCR reaction consisting of heating at 95° C. for 20 seconds, followed by 40 cycles consisting of heating at 95° C. for 3 seconds and annealing and extension at 60° C. for 30 seconds was performed using a real-time PCR device (“Applied Biosystems 7500 Real-Time PCR System”) with SDS v1.4 Software (product of Applied Biosystems). Threshold cycle (Ct) values were calculated using the software.
(§5) The Assay IDs of the TaqMan® Gene Expression Assays for the target genes used are as follows:
(§6) The expression level of each gene was determined according to the following formula using the level of ACTB as a reference standard.
(§7) (Relative mRNA expression level)=2̂−{(Ct value of the target gene)−(Ct value of ACTB)} […]

TNFα = assay: Relative TNFα mRNA expression in IL-1β-stimulated MKN-45 cells (real-time PCR); conditions: IL-1β-stimulated DMSO-treated cells = 100%, ACTB reference
Experimental: as §1, §2, §3, §4, §5, §6, §7

IL-8 = assay: Relative IL-8 mRNA expression in IL-1β-stimulated MKN-45 cells (real-time PCR); conditions: IL-1β-stimulated DMSO-treated cells = 100%, ACTB reference
Experimental: as §1, §2, §3, §4, §5, §6, §7

Row | SMILES | NF-kappaB reporter (SEAP luminescence) IL-1b(+) mean, relative to control (NF-κB) | COX2 relative mRNA expression level, Mean (COX2) [%] | TNFa relative mRNA expression level, Mean (TNFα) [%] | IL-8 relative mRNA expression level, Mean (IL-8) [%]
1 | CC(C)(C)OC(=O)N1CCC(CCN2C(=O)CCc3c(CC4SC(=O)NC4=O)cccc32)CC1 (centres unmarked) [Test Compound 159] | 0.64 | 27.7 | 33.5 | 34.0
2 | COc1ccc(CC2SC(=O)NC2=O)c2c1N(CC1CCN(c3ccc(C)cc3)CC1)C(=O)CC2 (centres unmarked) [Test Compound 164] | 0.78 | 21.7 | 30.0 | 24.8
3 | O=C1NC(=O)C(Cc2ccc3c(c2)CCC(=O)N3Cc2ccc(-c3ccccc3)cc2)S1 (centres unmarked) [Test Compound 186] | 0.67 | 29.7 | 70.8 | 67.7
4 | COc1ccc(CC2SC(=O)NC2=O)c2c1N(Cc1ccc(NC(=O)C3CCCCC3)cc1)C(=O)CC2 (centres unmarked) [Test Compound 225] | 0.49 | 32.9 | 44.6 | 50.0
5 | CCCCCOC(=O)Nc1ccc(CN2C(=O)CCc3c(CC4SC(=O)NC4=O)ccc(OC)c32)cc1 (centres unmarked) [Test Compound 232] | 0.71 | 29.9 | 28.9 | 33.8
6 | COc1ccc(CC2SC(=O)NC2=O)c2c1N(Cc1ccc(NC(=O)Oc3ccc(C)cc3)cc1)C(=O)CC2 (centres unmarked) [Test Compound 233] | 0.85 | 24.9 | 28.9 | 30.4
7 | COc1ccc(CC2SC(=O)NC2=O)c2c1N(Cc1ccc(NC(=O)OCc3ccccc3)cc1)C(=O)CC2 (centres unmarked) [Test Compound 234] | 0.67 | 24.0 | 32.4 | 28.3
8 | COc1ccc(OC(=O)Nc2ccc(CN3C(=O)CCc4c(CC5SC(=O)NC5=O)ccc(OC)c43)cc2)cc1 (centres unmarked) [Test Compound 237] | 0.57 | 25.9 | 26.2 | 25.9
